# Experiments:
# Type in all cases: cell-based
# [1] = biological target: T1, Gal-4 hPPARγ (Homo sapiens, UniProt P37231); test: Gal4-hPPARγ transient transfection reporter assay in Cos cells; settings: luciferase reporter, 24 hours with compound, scale 1-5, read-out: Gal-4 hPPAR γ EC50 (scaled number)
# T1 construct: Plasmids pGal4-hPPARα, pGal4-hPPARγ, pGal4-hPPARδ and pG5-TK-pGL3 were constructed as previously described by Staels, Bart, et al., Nature 1998 Jun; 25
# T1 sequence (P37231 238-505 limits assumed): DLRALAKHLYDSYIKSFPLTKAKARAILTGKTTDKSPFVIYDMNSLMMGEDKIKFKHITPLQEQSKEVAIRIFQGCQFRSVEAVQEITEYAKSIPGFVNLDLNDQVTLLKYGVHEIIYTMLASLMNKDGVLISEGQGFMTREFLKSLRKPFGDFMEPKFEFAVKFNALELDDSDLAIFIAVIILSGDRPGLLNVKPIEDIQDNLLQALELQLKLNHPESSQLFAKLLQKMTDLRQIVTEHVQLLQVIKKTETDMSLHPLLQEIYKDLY
# How it was run: (§1)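 Cos cells transiently co-transfected with Gal4-hPPAR expression plasmid, pG5-TK-pGL3 luciferase reporter and β-galactosidase control, then treated 24 h with increasing compound concentrations in DMEM containing 0.2% FCS. Luciferase normalised to β-galactosidase; EC50 from curve fit, at least three experiments.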
# [2] = biological target: T2, Full Length hPPARα (Homo sapiens, UniProt Q07869); test: Full length hPPARα transfection assay; settings: full length receptor; read-out: Full Length hPPAR α EC50 (scaled number)
# T2 construct: Full Length; expressed in transfected cells; host or cells: Cos cells
# T2 sequence (Q07869 1-468): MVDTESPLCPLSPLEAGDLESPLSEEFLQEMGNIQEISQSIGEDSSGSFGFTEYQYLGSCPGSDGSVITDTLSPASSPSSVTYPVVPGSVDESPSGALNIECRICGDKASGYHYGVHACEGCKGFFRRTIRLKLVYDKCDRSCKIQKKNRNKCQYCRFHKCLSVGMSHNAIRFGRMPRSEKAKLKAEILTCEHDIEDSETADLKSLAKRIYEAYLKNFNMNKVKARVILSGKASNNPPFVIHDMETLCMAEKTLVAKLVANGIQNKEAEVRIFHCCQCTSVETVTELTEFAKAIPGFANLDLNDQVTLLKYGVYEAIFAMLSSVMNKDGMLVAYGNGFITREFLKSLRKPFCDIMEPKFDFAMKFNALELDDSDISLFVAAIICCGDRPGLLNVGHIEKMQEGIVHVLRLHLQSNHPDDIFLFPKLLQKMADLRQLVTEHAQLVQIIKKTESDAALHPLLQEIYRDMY
# Description: (§2) Transient transfection assays. Cos cells were seeded in 60-mm dishes at a density of 5.5×10^5 cells/dish in Dulbecco's modified Eagle's medium (DMEM) supplemented with 10% fetal calf serum (FCS) and incubated at 37° C. for 24 hours before transfection. Cells were transfected in Opti-MEM (Gibco; Invitrogen, Carlsbad, Calif.) without FCS for 3 hours at 37° C., using polyethylenimine, with reporter and expression plasmids. The plasmid pBluescript (Stratagene, La Jolla, Calif.) was used as carrier DNA to set the final amount of DNA to 5.5 μg/dish. The pCMV-b-galactosidase expression plasmid was cotransfected as a control for transfection efficiency. Transfection was stopped by the addition of DMEM supplemented with 10% FCS, and cells were then incubated at 37° C. After 16 hours, cells were trypsinized and seeded in 96-well plates at the density of 2×10^4 cells/well and incubated for 6 hours in 10% FCS-containing DMEM. Cells were then incubated for 24 hours in DMEM containing 0.2% FCS and increasing concentrations of the compound tested or vehicle (DMSO). At the end of the experiment, cells were washed once with ice-cold PBS, lysed and the luciferase and b-galactosidase assays were performed in a luminometer and spectrophotomer. Transfection efficiencies were normalized with the b-galactosidase activity assay. Half-maximal effective concentration (EC50) was estimated using Prism software (GraphPad). All transfection experiments were performed at least three times.
# (§3) In the following tables, proprietary compound EC50 values for hPPAR α, β, δ and γ are shown. The EC50 value is the concentration of a drug that induces a response halfway between the baseline and maximum, and is commonly used as a measure of drug potency. EC50 values are reported on a scale of 1 through 5, wherein the value scale is defined for each receptor as follows: […]
# [3] = biological target: T3, Gal-4 hPPARα (Homo sapiens, UniProt Q07869); test: Gal4-hPPARα transient transfection reporter assay in Cos cells; settings: luciferase reporter, 24 hours with compound, scale 1-5, read-out: Gal-4 hPPAR α EC50 (scaled number)
# T3 construct: Plasmids pGal4-hPPARα, pGal4-hPPARγ, pGal4-hPPARδ and pG5-TK-pGL3 were constructed as previously described by Staels, Bart, et al., Nature 1998 Jun; 25
# T3 sequence (Q07869 200-468 limits assumed): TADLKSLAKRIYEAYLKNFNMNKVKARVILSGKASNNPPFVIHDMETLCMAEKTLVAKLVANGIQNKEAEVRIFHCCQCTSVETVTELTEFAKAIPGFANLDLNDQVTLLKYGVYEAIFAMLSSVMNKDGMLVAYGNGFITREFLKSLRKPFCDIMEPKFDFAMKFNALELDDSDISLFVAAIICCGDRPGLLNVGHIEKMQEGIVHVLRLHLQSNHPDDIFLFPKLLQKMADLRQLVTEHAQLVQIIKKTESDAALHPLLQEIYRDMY
# How it was run: as §1
# [4] = biological target: T4, Gal-4 hPPARβ/δ (Homo sapiens, UniProt Q03181); test: Gal4-hPPARδ transient transfection reporter assay in Cos cells; settings: luciferase reporter, 24 hours with compound, scale 1-5, read-out: Gal-4 hPPAR β/δ EC50 (scaled number)
# T4 construct: Plasmids pGal4-hPPARα, pGal4-hPPARγ, pGal4-hPPARδ and pG5-TK-pGL3 were constructed as previously described by Staels, Bart, et al., Nature 1998 Jun; 25
# T4 sequence (Q03181 171-441 limits assumed): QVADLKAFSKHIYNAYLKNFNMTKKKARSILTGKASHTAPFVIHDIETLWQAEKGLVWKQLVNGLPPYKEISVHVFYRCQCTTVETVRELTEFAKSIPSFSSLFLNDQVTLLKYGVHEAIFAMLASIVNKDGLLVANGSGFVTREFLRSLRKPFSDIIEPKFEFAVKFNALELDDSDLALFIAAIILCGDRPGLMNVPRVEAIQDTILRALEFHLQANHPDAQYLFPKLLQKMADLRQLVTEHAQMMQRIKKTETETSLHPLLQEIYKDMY
# How it was run: as §1
# [5] = biological target: T5, Full Length hPPARγ (Homo sapiens, UniProt P37231); test: Full length hPPARγ transfection assay; settings: full length receptor; scale 1-5; read-out: Full Length hPPAR γ EC50 (scaled number)
# T5 construct: Full Length; expressed in transfected cells; host or cells: Cos cells
# T5 sequence (P37231 1-505): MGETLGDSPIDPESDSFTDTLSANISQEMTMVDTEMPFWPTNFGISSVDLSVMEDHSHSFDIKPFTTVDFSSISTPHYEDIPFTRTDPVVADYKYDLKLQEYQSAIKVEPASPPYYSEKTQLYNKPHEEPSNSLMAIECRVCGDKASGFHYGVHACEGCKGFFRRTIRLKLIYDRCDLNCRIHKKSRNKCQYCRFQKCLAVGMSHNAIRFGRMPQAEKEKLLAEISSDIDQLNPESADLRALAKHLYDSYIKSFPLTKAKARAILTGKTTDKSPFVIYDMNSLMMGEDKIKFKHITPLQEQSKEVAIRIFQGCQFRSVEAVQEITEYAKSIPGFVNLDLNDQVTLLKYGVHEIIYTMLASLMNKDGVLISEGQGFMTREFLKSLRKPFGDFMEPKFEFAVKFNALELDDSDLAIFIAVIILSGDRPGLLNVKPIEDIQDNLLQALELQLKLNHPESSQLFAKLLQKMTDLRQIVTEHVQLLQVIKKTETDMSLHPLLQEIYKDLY
# Description: as §2, §3
# [6] = biological target: T6, Full Length hPPARβ/δ (Homo sapiens, UniProt Q03181); test: Full length hPPARβ/δ transfection assay; settings: full length receptor; scale 1-5; read-out: Full Length hPPAR β/δ EC50 (scaled number)
# T6 construct: Full Length; expressed in transfected cells; host or cells: Cos cells
# T6 sequence (Q03181 1-441): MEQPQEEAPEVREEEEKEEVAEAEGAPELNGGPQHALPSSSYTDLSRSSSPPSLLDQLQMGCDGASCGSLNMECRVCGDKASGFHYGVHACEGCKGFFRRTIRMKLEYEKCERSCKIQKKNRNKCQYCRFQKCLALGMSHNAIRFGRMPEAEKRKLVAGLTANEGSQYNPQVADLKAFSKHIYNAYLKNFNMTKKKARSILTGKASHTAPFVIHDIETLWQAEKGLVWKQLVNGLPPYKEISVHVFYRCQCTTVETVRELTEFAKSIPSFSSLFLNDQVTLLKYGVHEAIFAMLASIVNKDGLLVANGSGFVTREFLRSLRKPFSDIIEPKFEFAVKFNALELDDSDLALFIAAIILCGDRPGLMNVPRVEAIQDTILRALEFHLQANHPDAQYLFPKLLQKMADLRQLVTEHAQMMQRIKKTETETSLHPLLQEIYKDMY
# Description: as §2, §3
Structure (SMILES),EC50 [1] [nM],EC50 [2] [nM],EC50 [3] [nM],EC50 [4] [nM],EC50 [5] [nM],EC50 [6] [nM]
"CC(C)(Sc1ccc(C(=O)OCCn2cc(-c3ccc(C(C)(C)C)cc3)nn2)cc1)C(=O)O [Compound 89, 2-(4-((2-(4-(4-tert-butylphenyl)-1H-1,2,3-triazol-1-yl)ethoxy)carbonyl)phenylthio)-2-methylpropanoic acid]",> 1000,1 to 50,51 to 200,> 1000,,
"COc1ccc(Cn2cc(COC(=O)c3ccc(SC(C)(C)C(=O)O)cc3)nn2)cc1 [Compound 68, 2-(4-(((1-(4-methoxybenzyl)-1H-1,2,3-triazol-4-yl)methoxy)carbonyl)phenylthio)-2-methylpropanoic acid]",> 1000,51 to 200,51 to 200,> 1000,,
"CC(C)c1ccc(-n2cc(COC(=O)c3ccc(SC(C)(C)C(=O)O)cc3)nn2)cc1 [Compound 56, 2-(4-(((1-(4-isopropylphenyl)-1H-1,2,3-triazol-4-yl)methoxy)carbonyl)phenylthio)-2-methylpropanoic acid]",> 1000,1 to 50,51 to 200,> 1000,201 to 999,
"CCCn1c(COC(=O)c2ccc(OC(C)(C)C(=O)O)c(OC)c2)nn(Cc2ccc(C(C)(C)C)cc2)c1=O [Compound 180, 2-(4-(((1-(4-tert-butylbenzyl)-5-oxo-4-propyl-4,5-dihydro-1H-1,2,4-triazol-3-yl)methoxy)carbonyl)-2-methoxyphenoxy)-2-methylpropanoic acid]",> 1000,< 1,201 to 999,> 1000,,
"Cc1ccc(Cn2nncc2COC(=O)c2ccc(SC(C)(C)C(=O)O)cc2)cc1 [Compound 62, 2-methyl-2-(4-(((1-(4-methylbenzyl)-1H-1,2,3-triazol-5-yl)methoxy)carbonyl)phenylthio)propanoic acid]",> 1000,51 to 200,51 to 200,> 1000,,
"CCCn1c(COC(=O)c2ccc(OC(C)(C)C(=O)O)cc2)nn(Cc2ccc(OC(F)(F)F)cc2)c1=O [Compound 168, 2-methyl-2-(4-(((5-oxo-4-propyl-1-(4-(trifluoromethoxy)benzyl)-4,5-dihydro-1H-1,2,4-triazol-3-yl)methoxy)carbonyl)phenoxy)propanoic acid]",> 1000,51 to 200,201 to 999,> 1000,> 1000,
"Cn1nc(-c2ccccc2)cc1COC(=O)c1ccc(OC(C)(C)C(=O)O)cc1 [Compound 2, 2-methyl-2-(4-(((1-methyl-3-phenyl-1H-pyrazol-5-yl)methoxy)carbonyl)phenoxy)propanoic acid]",> 1000,1 to 50,201 to 999,> 1000,,
"Cn1nc(-c2ccccc2)cc1COC(=O)c1ccc(SC(C)(C)C(=O)O)cc1 [Compound 1, 2-methyl-2-(4-(((1-methyl-3-phenyl-1H-pyrazol-5-yl)methoxy)carbonyl)phenylthio)propanoic acid]",> 1000,< 1,1 to 50,> 1000,51 to 200,> 1000
"CCCCCCn1c(COC(=O)c2ccc(OC(C)(C)C(=O)O)c(OC)c2)nn(Cc2ccc(C(C)(C)C)cc2)c1=O [Compound 185, 2-(4-(((1-(4-tert-butylbenzyl)-4-hexyl-5-oxo-4,5-dihydro-1H-1,2,4-triazol-3-yl)methoxy)carbonyl)-2-methoxyphenoxy)-2-methylpropanoic acid]",> 1000,< 1,1 to 50,> 1000,,
"Cc1ccc(Cn2cc(C(C)OC(=O)c3ccc(SC(C)(C)C(=O)O)cc3)nn2)cc1 (stereo not shown) [Compound 81, 2-methyl-2-(4-((1-(1-(4-methylbenzyl)-1H-1,2,3-triazol-4-yl)ethoxy)carbonyl)phenylthio)propanoic acid]",> 1000,< 1,1 to 50,> 1000,,
"CCCCCCCn1c(COC(=O)c2ccc(OC(C)(C)C(=O)O)c(OC)c2)nn(Cc2ccc(C(C)(C)C)cc2)c1=O [Compound 212, 2-(4-(((1-(4-tert-butylbenzyl)-4-heptyl-5-oxo-4,5-dihydro-1H-1,2,4-triazol-3-yl)methoxy)carbonyl)-2-methoxyphenoxy)-2-methylpropanoic acid]",51 to 200,< 1,< 1,> 1000,51 to 200,

# Reference: patent publication US20100184815A1 (priority 2008, published 2010)
